According to patent publication US11851413B1, “1,3-benzothiazol-2-yl-N'-[(naphthalene-1-carbonyl)oxy]ethanimidamide as an antitumor and antimicrobial compound” (KING FAISAL UNIVERSITY, priority 2023, dated 2023):

Assays:
[1] = test system: human prostate cancer cells (PC3); assay: Cytotoxicity by SRB assay, PC3 cells; type: cell-based; conditions: 0.01 μM to 100 μM, 72 h
Description: (§1) The human prostate cancer cells (PC3) and human osteosarcoma cells (MG-63) were obtained from Nawah Scientific Inc. (Mokatam, Cairo, Egypt) and cultured in DMEM (Dulbecco's modified eagle's medium), Gibco, USA, supplemented with fetal bovine serum (FBS) at a concentration of 10% and 100 U/mL of penicillin and streptomycin (PS). The Cells were incubated at 37° C. in a humidified environment that contained 5% CO2. Cells were seeded in 96-well plates as aliquots of 100 μL cell suspension and incubated in a complete media for 24 h. afterward, cells were treated with N′-(1-naphthoyloxy)-2-(benzo[d]thiazol-2-yl)acetimidamide at diverse concentrations ranging from 0.01 μM to 100 μM for 72 h. Then, cells were fixed at 4° C. for one hour with 150 μL of 10% trichloroacetic acid (TCA). After washing the cells five times with distilled water, 70 μL of sulforhodamine (SRB) solution (0.4% w/v) was added and incubated for 10 min at room temperature in a dark place. […] Then, 150 μL of Tris pH 10.5 (10 mM) was added, and the absorbance was measured at 540 nm using a BMG LABTECH®-FLUOstar Omega microplate reader (Ortenberg, Germany). Half maximal inhibitory concentrations (IC50) values were calculated for each experiment using GraphPad Prism 6 software. […] The inhibition was calculated using the following equation: Inhibition%=100−Average Viability

[2] = test system: human osteosarcoma cells (MG-63); assay: Cytotoxicity by SRB assay, MG-63 cells; type: cell-based; conditions: 0.01 μM to 100 μM, 72 h
Description: as §1

melting point: 191 to 193 °C
SMILES: N/C(Cc1nc2ccccc2s1)=N\OC(=O)c1cccc2ccccc12 [1,3-benzothiazol-2-yl-N′-[(naphthalene-1-carbonyl)oxy]ethanimidamide]
antiproliferative activity against prostate cancer cells (PC3) [1]: excellent antiproliferative activities | antiproliferative activity against osteosarcoma (MG-63) cells [2]: excellent antiproliferative activities
